Among the data in patent US11299467B2 (Antabio SAS, priority 2017, dated 2022) are MIC values, retold here.

Converted amounts (≈) assume the structure as drawn.

A word on the MIC: it is the least concentration at which growth counts as inhibited.

What all share (format): cell-based
Experiment [1] concerns NTBC123 (K. pneumoniae strain expressing NDM-1). The experiment can be described thus: Meropenem MIC, broth micro-dilution, NTBC123. To be noted: Klebsiella pneumoniae, read-out: MIC mero. As to the method: (§1) The experiments were carried out using the ‘broth micro-dilution method’ according to the protocols M07-A8 established by the Clinical Laboratory Standards Institute (CLSI). Serial dilutions of the β-lactam antibiotic (Meropenem) were prepared in 96-well plates in cation-adjusted Mueller-Hinton broth (CAMHB); the concentration range was defined from 0.03 mg/L to 512 mg/L. The compounds were added at a constant concentration of 8 μg/mL. A bacterial inoculum of each strain (clinical isolates) was adjusted to a 0.5 McFarland turbidity standard in physiologic serum (0.9% NaCl), then diluted 1:100 in CAMHB and added to each well to give a final bacterial cell number of 5×10^5 CFU/well. After incubation for 18-20 hours in a heating chamber at 37° C., the growth inhibition was evaluated by the absence of any bacterial development.
(§2) Compounds of the invention were tested at a constant concentration of 8 μg/mL. […]
(§3) Experiments were carried out using the ‘broth micro-dilution method’ according to the protocols M07-A8 established by the Clinical Laboratory Standards Institute (CLSI). […] After incubation for 18-20 hours in a heating chamber at 37° C., the growth inhibition was evaluated by the absence of any bacterial development. […]

For experiment [2], the system named is NTBC024 (K. pneumoniae strain expressing VIM-19, TEM-1 and CTX-M-3). The experiment can be described thus: Meropenem MIC, broth micro-dilution, NTBC024. To be noted: Klebsiella pneumoniae, read-out: MIC mero. As to the method: as §1, §2, §3
On the technique in general: Dilution methods test growth across graded concentrations, often in twofold steps.

In experiment [3] the test system is NTBC042 (E. coli strain expressing VIM-1, TEM-1, CTX-M-15, SHV-12). The experiment can be described thus: Meropenem MIC, broth micro-dilution, NTBC042. The note with it: Escherichia coli, read-out: MIC mero. As to the method:
as §1, §2, §3

For experiment [4], the system named is NTBC055 (E. Coli strain expressing VIM-1). The experiment can be described thus: Meropenem MIC, broth micro-dilution, NTBC055. To be noted: Escherichia coli, read-out: MIC mero. As to the method:
as §1, §2, §3

The test system of experiment [5] is NTBC062 (K. pneumoniae strain expressing IMP-1 and TEM-1). The experiment can be described thus: Meropenem MIC, broth micro-dilution, NTBC062. The note with it: Klebsiella pneumoniae, read-out: MIC mero. As to the method:
as §1, §2, §3

For experiment [6], the system named is NTBC091-1 (E. coli strain expressing KPC-2 and TEM-1). Description: Meropenem MIC, broth micro-dilution, NTBC091-1. To be noted: Escherichia coli, read-out: MIC mero. As to the method: as §1, with “Experiments” for “The experiments”, “meropenem (mero)” for “the β-lactam antibiotic (Meropenem)”, “compounds (the compound of Example 2, above, and/or WCK4234)” for “compounds”, “the” for “a constant”, “indicated in the table below.” for “of 8 μg/mL.”
(§4) NTBC091-1 (E. coli strain expressing KPC-2 and TEM-1); NTBC093 (E. cloacae strain expressing KPC-2 and TEM-1); NTBC096-1 (K. pneumonia strain expressing OXA-181 and SHV-11); NTBC099 (K. pneumonia strain expressing KPC-3, SHV-11 and TEM-1); and NTBC189 (K. pneumonia strain expressing TEM-OSBL, CTX-M-14 and OXA-48).

For experiment [7], the system named is NTBC096-1 (K. pneumonia strain expressing OXA-181 and SHV-11). Description: Meropenem MIC, broth micro-dilution, NTBC096-1. The note with it: Klebsiella pneumoniae, read-out: MIC mero. As to the method:
as §1, with “Experiments” for “The experiments”, “meropenem (mero)” for “the β-lactam antibiotic (Meropenem)”, “compounds (the compound of Example 2, above, and/or WCK4234)” for “compounds”, “the” for “a constant”, “indicated in the table below.” for “of 8 μg/mL.”
as §4

In experiment [8] the test system is NTBC099 (K. pneumonia strain expressing KPC-3, SHV-11 and TEM-1). Description: Meropenem MIC, broth micro-dilution, NTBC099. The note with it: Klebsiella pneumoniae, read-out: MIC mero. As for the experimental part: as §1, with “Experiments” for “The experiments”, “meropenem (mero)” for “the β-lactam antibiotic (Meropenem)”, “compounds (the compound of Example 2, above, and/or WCK4234)” for “compounds”, “the” for “a constant”, “indicated in the table below.” for “of 8 μg/mL.”
as §4

For experiment [9], the system named is NTBC189 (K. pneumonia strain expressing TEM-OSBL, CTX-M-14 and OXA-48). The experiment can be described thus: Meropenem MIC, broth micro-dilution, NTBC189. The note with it: Klebsiella pneumoniae, read-out: MIC mero. As for the experimental part: as §1, with “Experiments” for “The experiments”, “meropenem (mero)” for “the β-lactam antibiotic (Meropenem)”, “compounds (the compound of Example 2, above, and/or WCK4234)” for “compounds”, “the” for “a constant”, “indicated in the table below.” for “of 8 μg/mL.”
as §4

For experiment [10], the system named is NTBC185 (K. pneumonia strain expressing SHV-OSBL, TEM-OSBL, NDM-1 and OXA-48). Description: Meropenem MIC, broth micro-dilution, NTBC185. The note with it: Klebsiella pneumoniae, read-out: MIC mero. As for the experimental part:
as §1, with “Experiments” for “The experiments”, “meropenem (mero)” for “the β-lactam antibiotic (Meropenem)”, “compounds (the compound of Example 2, above, and/or WCK4234)” for “compounds”, “the” for “a constant”, “indicated in the table below.” for “of 8 μg/mL.”
(§5) NTBC019 (K. pneumonia strain expressing NDM-1, CTX-M-15 and OXA-181); NTBC185 (K. pneumonia strain expressing SHV-OSBL, TEM-OSBL, NDM-1 and OXA-48); NTBC186 (K. pneumonia strain expressing ACT-TYPE, VIM-1 and OXA-48); NTBC187 (K. pneumonia strain expressing SHV-OSBL, NDM-1 and OXA-48); and NTBC188 (K. pneumonia strain expressing NDM-1 and KPC-2).

In experiment [11] the test system is NTBC187 (K. pneumonia strain expressing SHV-OSBL, NDM-1 and OXA-48). Description: Meropenem MIC, broth micro-dilution, NTBC187. To be noted: Klebsiella pneumoniae, read-out: MIC mero. As for the experimental part: as §1, with “Experiments” for “The experiments”, “meropenem (mero)” for “the β-lactam antibiotic (Meropenem)”, “compounds (the compound of Example 2, above, and/or WCK4234)” for “compounds”, “the” for “a constant”, “indicated in the table below.” for “of 8 μg/mL.”
as §5

Take `C[C@@H](O)[C@H]1C(=O)N2C(C(=O)O)=C(S[C@@H]3CN[C@H](C(=O)N(C)C)C3)[C@H](C)[C@H]12` [Meropenem]: the MIC amounted to 128 µg/mL in experiment [1]; 16 µg/mL in [2]; 8 µg/mL in [3]; 4 µg/mL in experiment [4]; 4 µg/mL in experiment [5]; 4 µg/mL (≈ 10.4 µM) in experiment [6]. Moreover, the MIC in experiment [7] came to 16 µg/mL (≈ 41.7 µM); in experiment [8], 128 µg/mL (≈ 334 µM); in experiment [9], 16 µg/mL (≈ 41.7 µM); in experiment [10] it was 128 µg/mL (≈ 334 µM); in experiment [11] it was 128 µg/mL (≈ 334 µM).
